Activity calls are given as the source filed them.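 How the source made its calls: active means curve reaches 40% rise within the top valid dose, in every run; inconclusive means runs give conflicting calls; inactive means opposite-direction activity, or every run inactive.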

Tested on in the first test: not listed separately
The experiment in a line: statin-free myotube ATP level counter-assay – cell-based, no simvastatin, luminescence, dry powder, counter-screen for statin myotoxicity suppressor project, dose response (AID 743334). The following applies: C2C12 myotubes ATP, CellTiter-Glo luminescence, 48 h; at 19.5 µM (top of the series). For orientation: A counterscreen serves to expose hits that act by an unwanted route or on another target.
For `N#C[C@@H]1[C@@H](c2ccc(-c3ccc(F)cc3)cc2)[C@H](CO)N1C(=O)Cc1ccccc1`, the ATP level change, positive = increase was 2.91% (inactive).
The same measure, in the same setting: the value for `C[C@H]1CN([C@@H](C)CO)C(=O)c2cc(N(C)C)ccc2O[C@@H]1CN(C)Cc1ccc(C(=O)Nc2ccccc2N)cc1` was 3.03% (inactive).

The test is the same for the next values; noted with them: C2C12 myotubes ATP, CellTiter-Glo luminescence, 48 h; at 21 µM (top of the series).
Regarding `CC(C)CC#Cc1cnc2c(c1)C(=O)N([C@H](C)CO)C[C@H](C)[C@@H](CN(C)C(=O)Cc1ccccc1)O2`, the ATP level change, positive = increase is 6.23% (inactive).

Staying with this test, now noted: C2C12 myotubes ATP, CellTiter-Glo luminescence, 48 h; active compounds read high.
Consider `C[C@H](CO)N1C[C@H](C)[C@H](CN(C)Cc2ccc(C(=O)Nc3ccccc3N)cc2)Oc2ccc(N(C)C)cc2C1=O`, for which the max activity is -24.5% (inactive).
Regarding `N#C[C@H]1N[C@@H](CO)[C@@H]1c1ccc(-c2cccc(F)c2)cc1`, the max activity is 7.67% (inactive).
Take `CN1C(=O)c2cc(NC(=O)c3ccc(F)c(F)c3)ccc2OC[C@H]2O[C@@H](CC(=O)Nc3ccc4c(c3)COC4)CC[C@@H]21`: the max activity was 12.6% (inactive).
Same read-out and setting: the result for `COc1ccc(C#Cc2cnc3c(c2)C(=O)N([C@H](C)CO)C[C@H](C)[C@H](CN(C)Cc2ccccc2)O3)cc1OC` reads 15.6% (inactive); that for `C[C@@H]1CN([C@H](C)CO)C(=O)c2cc(NC(=O)Cc3cn(C)c4ccccc34)ccc2O[C@@H]1CN(C)Cc1ccc(C(=O)Nc2ccccc2N)cc1`, -0.539% (inactive).
For `C[C@H]1CN([C@@H](C)CO)C(=O)Cc2cc(NC(=O)CCCCCC(=O)Nc3ccccc3N)ccc2O[C@@H]1CN(C)Cc1ccc(Oc2ccccc2)cc1`, the max activity is -15.5% (inactive).
Same read-out and setting: the value for `C[C@@H]1CN([C@@H](C)CO)C(=O)c2cc(NC(=O)Cc3cn(C)c4ccccc34)ccc2O[C@@H]1CN(C)Cc1ccc(C(=O)Nc2ccccc2N)cc1` was 14.1% (inactive).
For the compound `C[C@@H]1CN([C@H](C)CO)C(=O)c2cccc(NC(=O)Nc3ccc4c(c3)OCO4)c2O[C@H]1CN(C)Cc1ccc(C(=O)Nc2ccccc2N)cc1`, the max activity was -9.22% (inactive).
On the same count and under the same terms, the result for `COc1ccc(S(=O)(=O)Nc2ccc3c(c2)CC(=O)N([C@H](C)CO)C[C@@H](C)[C@H](CN(C)CC2CCCCC2)O3)cc1` reads -10.2% (inactive); that for `C[C@H](CO)N1C[C@H](C)[C@H](CN(C)Cc2ccc(C(=O)Nc3ccccc3N)cc2)Oc2ccc(NC(=O)Cc3cn(C)c4ccccc34)cc2C1=O`, 12.2% (inactive).
On the same count and under the same terms, the value for `N#C[C@@H]1[C@@H](c2ccccc2-c2cccc(F)c2)[C@H](CO)N1C(=O)NC1CCCC1` was 11.6% (inactive); that for `C/C=C/c1ccc([C@H]2[C@@H](CO)N(C(=O)NC3CCCC3)[C@H]2C#N)cc1` was -3.18% (inactive); that for `N#C[C@@H]1[C@H](c2ccc(-c3cccc(F)c3)cc2)[C@H](CO)N1C(=O)NC1CCCC1` was -18.6% (inactive).
Same read-out and setting: the value for `C[C@@H]1CN([C@H](C)CO)C(=O)c2cc(NC(=O)Cc3cn(C)c4ccccc34)ccc2O[C@H]1CN(C)Cc1ccc(C(=O)Nc2ccccc2N)cc1` was 9.28% (inactive).
With `C[C@H]1CN([C@@H](C)CO)C(=O)Cc2cc(NC(=O)CCCCCC(=O)Nc3ccccc3N)ccc2O[C@H]1CN(C)CC1CCCCC1`, the max activity was 11.1% (inactive).

A further test relates to C2C12 myotubes ATP, CellTiter-Glo luminescence, 48 h. The test is described as above.
Conditions: not given
Take `C[C@H]1CN([C@@H](C)CO)C(=O)c2cc(NC(=O)Nc3cccc4ccccc34)ccc2O[C@H]1CN(C)Cc1ccc(C(=O)Nc2ccccc2N)cc1`: the AC40 was > 19.5 µM (inactive).
On the same count and under the same terms, the value for `COc1ccc(CN(C)C[C@H]2Oc3ccc(NS(=O)(=O)c4ccc(Cl)cc4)cc3CC(=O)N([C@@H](C)CO)C[C@@H]2C)cc1` was > 19.5 µM (inactive).
Turning to `C[C@H]1CN([C@@H](C)CO)C(=O)Cc2cc(NC(=O)CCCCCC(=O)Nc3ccccc3N)ccc2O[C@H]1CN(C)Cc1ccccc1`, the AC40 was 18 µM (inactive).
Same read-out and setting: the value for `C[C@H](CO)N1C[C@H](C)[C@H](CN(C)CC2CCCCC2)Oc2ccc(NC(=O)CCCCCC(=O)Nc3ccccc3N)cc2CC1=O` was > 19.5 µM (inactive); that for `C[C@H](CO)N1C[C@H](C)[C@@H](CN(C)Cc2ccc(Cl)c(Cl)c2)Oc2ccc(NC(=O)C3CC3)cc2CC1=O` was > 19.5 µM (inactive); that for `COc1ccc(S(=O)(=O)Nc2ccc3c(c2)CC(=O)N([C@H](C)CO)C[C@H](C)[C@@H](CN(C)Cc2ccc(Cl)c(Cl)c2)O3)cc1` was > 19.5 µM (inactive).
Same read-out and setting: the value for `C[C@H]1CN([C@@H](C)CO)C(=O)c2cc(C#Cc3ccncc3)cnc2O[C@@H]1CN(C)CC1CCCC1` was > 19.5 µM (inactive); that for `N#C[C@@H]1[C@@H](c2ccc(-c3cccc(F)c3)cc2)[C@H](CO)N1C(=O)NC1CCCC1` was > 21 µM (inactive); that for `C[C@@H]1CN([C@@H](C)CO)C(=O)c2cc(NC(=O)Nc3cccc4ccccc34)ccc2O[C@@H]1CN(C)Cc1ccc(C(=O)Nc2ccccc2N)cc1` was > 21 µM (inactive).

(Values after PubChem BioAssay AID743334 (Broad Institute, 2014).)
